Test results from ChEMBL document CHEMBL1141002, “Alpha-mercaptoketone based histone deacetylase inhibitors” (Bioorg Med Chem Lett, 2008).
“And” between values parts separate entries of the source, which are not always exact repeats. Identical values can stand only once.

Legend:
HCT-116 [1] = experiment: Cytotoxicity against human HCT116 cells; type: functional, cell-based
Histone deacetylase = experiment: Inhibition of histone deacetylase in human HeLa cells assessed as induction of histone H3 hyperacetylation; type: cell-based
HCT-116 [2] = experiment: Antitumor activity against human HCT116 cells xenografted in nude mouse at 50 mg/kg, po administered once a day for 14 days relative to control; type: functional

SMILES | EC50 (HCT-116 [1]) | EC50 (Histone deacetylase) | T/C (HCT-116 [2])
CC(=O)SCC(=O)c1ccc(NS(=O)(=O)c2ccc(C)cc2)cc1 | 6500 nM | 100 nM | –
CC(=O)SCC(=O)c1ccc(NS(=O)(=O)c2ccc3c(c2)ncn3C)cc1 | 1800 nM | 79 nM and 38 nM | –
CC(=O)SCC(=O)c1ccc(C(=O)Nc2ccc(OC(F)(F)F)cc2)cc1 | – | 67100 nM | –
COc1ccc(S(=O)(=O)Nc2ccc(C(=O)CSC(C)=O)cc2)cc1OC | 3200 nM | 280 nM | –
CC(=O)SCC(=O)c1ccc(NS(=O)(=O)c2ccc3c(c2)NCC3)cc1 | 3300 nM | 47 nM | –
CC(=O)SCC(=O)c1ccc(NS(=O)(=O)c2ccc3c(c2)N(C(C)=O)CC3)cc1 | 4600 nM | 91 nM | –
CC(=O)SCC(=O)c1ccc(NS(=O)(=O)c2ccc3c(c2)ncn3C)nc1 | 4900 nM | 240 nM | –
CC(=O)SCC(=O)c1ccc(NS(=O)(=O)c2ccc3c(c2)CCO3)nc1 | 6400 nM | 95 nM | –
CC(=O)SCC(=O)c1ccc(NS(=O)(=O)c2ccc3ccccc3c2)cc1 | 2600 nM | 29 nM | –
CC(=O)SCC(=O)c1ccc(NS(=O)(=O)c2ccc3c(c2)CCN3)cc1 | 1100 nM | 160 nM | –
CC(=O)SCC(=O)c1ccc(NS(=O)(=O)c2ccc3c(c2)OCO3)nc1 | 5500 nM | 360 nM | –
CC(=O)SCC(=O)c1ccc(NS(=O)(=O)c2ccc3c(c2)OCO3)cc1 | 1400 nM | 88 nM | –
CC(=O)SCC(=O)c1ccc(NS(=O)(=O)c2ccccc2)nc1 | 5300 nM | 150 nM | –
CC(=O)SCC(=O)c1ccc(NS(=O)(=O)c2ccc3c(c2)CCO3)cc1 | 3200 nM | 82 nM | –
CC(=O)SCC(=O)c1ccc(NS(=O)(=O)c2ccc3ccccc3c2)nc1 | 4900 nM | 42 nM | –
CC(=O)SCC(=O)c1ccc(NS(=O)(=O)c2ccc3cc[nH]c3c2)cc1 | 600 nM | 44 nM | –
CC(=O)SCC(=O)c1ccc(N(C)S(=O)(=O)c2ccc(OC(F)(F)F)cc2)cc1 | – | 4300 nM | –
CC(=O)SCC(=O)c1ccc(NS(=O)(=O)c2ccc(Cl)c(Cl)c2)cc1 | – | 420 nM | –

SMILES | EC50 (HCT-116 [1]) | EC50 (Histone deacetylase) | T/C (HCT-116 [2])
CC(=O)SCC(=O)c1ccc(NS(=O)(=O)c2cccc(F)c2)cc1 | – | 460 nM | –
CC(=O)SCC(=O)c1ccc(NS(=O)(=O)c2ccc(Cl)cc2)cc1 | 30800 nM | 280 nM | –
CC(=O)SCC(=O)c1ccc(NS(=O)(=O)c2cccc(OC(F)(F)F)c2)cc1 | – | 790 nM | –
CC(=O)SCC(=O)c1ccc(NS(=O)(=O)c2ccc(OC(F)(F)F)cc2)cc1 | 8800 nM | 200 nM | –
COc1ccc(S(=O)(=O)Nc2ccc(C(=O)CSC(C)=O)cc2)cc1 | 500 nM | 50 nM | –
CC(=O)SCC(=O)c1ccc(NS(=O)(=O)c2ccc(C(F)(F)F)cc2)cc1 | – | 2100 nM | –
CC(=O)SCC(=O)c1ccc(S(=O)(=O)Nc2ccc(OC(F)(F)F)cc2)cc1 | 16100 nM | 1000 nM | –
CC(=O)SCC(=O)c1ccc(NS(=O)(=O)c2ccccc2Cl)cc1 | – | 850 nM | –
CC(=O)SCC(=O)c1ccc(NS(=O)(=O)c2cccc(Cl)c2)cc1 | – | 150 nM | –
CC(=O)SCC(=O)c1ccc(NS(=O)(=O)c2ccc3c(c2)OCCN3C)cc1 | 2600 nM | 100 nM | –
CC(=O)SCC(=O)c1ccc(NS(=O)(=O)c2ccc3[nH]ccc3c2)cc1 | 1500 nM | 59 nM | –
CC(=O)SCC(=O)c1ccc(NS(=O)(=O)c2ccc3c(c2)OCCN3C)nc1 | 9600 nM | 150 nM | –
CC(=O)SCC(=O)c1ccc(NS(=O)(=O)c2ccc3c(c2)OCCO3)cc1 | 400 nM | 26 nM | 87%
CC(=O)SCC(=O)c1ccc(NCc2ccc(OC(F)(F)F)cc2)cc1 | – | 1500 nM | –
CC(=O)SCC(=O)c1ccc(NS(=O)(=O)c2ccccc2)cc1 | 15400 nM | 330 nM | –
COc1cccc(S(=O)(=O)Nc2ccc(C(=O)CSC(C)=O)cc2)c1 | 2600 nM | 170 nM | –
CC(=O)SCC(=O)c1ccc(NC(=O)Nc2ccc(OC(F)(F)F)cc2)cc1 | – | 11200 nM | –
CC(=O)SCC(=O)c1ccc(NS(=O)(=O)c2ccc(F)cc2)cc1 | – | 950 nM | –
